Experimental data published in patent US7846959B2, “Raf modulators and methods of use” (Exelixis, Inc., priority 2004, dated 2010).
Like-named read-outs stand apart in the source and are kept apart here.

How the values were obtained:
c-Raf = c-Raf (Homo sapiens, UniProt P04049); assay: Luciferase-coupled chemiluminescence kinase assay (ATP consumption), c-Raf; format: biochemical
How it was run: (§1)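 Enzyme ([…]) was pre-incubated with compound for 30 min at room temperature in 20 mM Tris pH 7.5, 10 mM MgCl2, 0.03% TX-100, 1 mM DTT. ATP was added and the reaction ran 3 h at ambient temperature. Remaining ATP was read by luciferase-luciferin chemiluminescence, giving IC50 values.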

B-Raf = B-Raf (Homo sapiens, UniProt P15056); assay: Luciferase-coupled chemiluminescence kinase assay (ATP consumption), B-Raf; format: biochemical
Chain of B-Raf (P15056 whole entry): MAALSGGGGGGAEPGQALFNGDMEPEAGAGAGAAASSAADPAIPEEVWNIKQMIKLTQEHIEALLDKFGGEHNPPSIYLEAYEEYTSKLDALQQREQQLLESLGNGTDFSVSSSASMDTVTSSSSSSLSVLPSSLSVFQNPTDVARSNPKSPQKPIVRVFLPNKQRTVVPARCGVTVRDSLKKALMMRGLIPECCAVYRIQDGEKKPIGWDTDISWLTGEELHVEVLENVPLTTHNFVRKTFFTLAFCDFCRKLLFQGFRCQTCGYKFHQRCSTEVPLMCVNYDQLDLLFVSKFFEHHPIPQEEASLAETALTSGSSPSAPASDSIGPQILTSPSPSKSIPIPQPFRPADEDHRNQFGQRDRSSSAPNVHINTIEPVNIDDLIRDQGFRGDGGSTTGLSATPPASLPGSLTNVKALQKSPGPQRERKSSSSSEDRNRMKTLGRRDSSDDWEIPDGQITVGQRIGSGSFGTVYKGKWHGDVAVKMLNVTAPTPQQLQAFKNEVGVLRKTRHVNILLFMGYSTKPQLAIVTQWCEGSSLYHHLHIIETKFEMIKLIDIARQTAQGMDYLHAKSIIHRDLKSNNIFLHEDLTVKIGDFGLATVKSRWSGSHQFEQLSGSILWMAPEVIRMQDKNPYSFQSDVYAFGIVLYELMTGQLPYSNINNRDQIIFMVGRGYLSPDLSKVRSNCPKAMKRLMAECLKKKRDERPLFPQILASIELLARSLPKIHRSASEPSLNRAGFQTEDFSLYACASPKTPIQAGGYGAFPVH
How it was run: as §1

[1] = read-out: cRaf-1 (inhibition indicated as IC50)
[2] = read-out: bRaf (inhibition indicated as IC50)

Chain of c-Raf (P04049 whole entry): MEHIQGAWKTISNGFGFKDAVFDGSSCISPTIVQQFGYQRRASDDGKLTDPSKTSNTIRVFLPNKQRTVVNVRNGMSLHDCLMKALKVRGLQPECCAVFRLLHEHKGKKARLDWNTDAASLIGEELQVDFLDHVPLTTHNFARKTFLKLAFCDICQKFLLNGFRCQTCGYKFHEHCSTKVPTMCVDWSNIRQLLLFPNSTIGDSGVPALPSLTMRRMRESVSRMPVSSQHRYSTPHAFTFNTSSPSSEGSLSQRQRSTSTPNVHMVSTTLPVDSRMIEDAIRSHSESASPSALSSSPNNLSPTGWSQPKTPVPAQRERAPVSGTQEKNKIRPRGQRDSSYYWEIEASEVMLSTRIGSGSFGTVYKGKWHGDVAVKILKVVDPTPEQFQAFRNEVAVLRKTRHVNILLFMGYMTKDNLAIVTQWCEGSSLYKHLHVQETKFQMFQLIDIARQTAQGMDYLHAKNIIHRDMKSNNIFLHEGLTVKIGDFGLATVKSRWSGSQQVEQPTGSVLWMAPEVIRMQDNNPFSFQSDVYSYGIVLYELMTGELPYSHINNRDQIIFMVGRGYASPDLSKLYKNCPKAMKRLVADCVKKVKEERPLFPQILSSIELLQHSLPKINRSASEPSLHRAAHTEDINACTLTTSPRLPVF

| SMILES | IC50 (c-Raf; [1]) | IC50 (B-Raf; [2]) | IC50 (c-Raf; read-out: cRaf-1 IC50) | IC50 (B-Raf; read-out: bRaf IC50) |
| --- | --- | --- | --- | --- |
| CCN(CC)C(=O)CCCC(=O)Nc1nc2cc(C3(O)c4ccccc4C(=O)N3c3cccc(Cl)c3F)ccc2[nH]1 (stereo not drawn) [Entry 343, N′-{5-[2-(3-chloro-2-fluorophenyl)-1-hydroxy-3-oxo-2,3-dihydro-1H-isoindol-1-yl]-1H-benzimidazol-2-yl}-N,N-diethylpentanediamide] | < 0.1 µM | < 0.1 µM |  |  |
| Nc1nc2cc(C3(O)c4ccccc4C(=O)N3Cc3ccccc3)ccc2[nH]1 (stereo not drawn) [Entry 101, 3-(2-amino-1H-benzimidazol-5-yl)-3-hydroxy-2-(phenylmethyl)-2,3-dihydro-1H-isoindol-1-one] |  |  | 1 to 10 µM | 1 to 10 µM |
| CN1CCCCC1COC(=O)Nc1nc2ccc(C3(O)c4ccccc4C(=O)N3c3cccc(Cl)c3F)cc2[nH]1 (stereo not drawn) [Entry 302, (1-methylpiperidin-2-yl)methyl {6-[2-(3-chloro-2-fluorophenyl)-1-hydroxy-3-oxo-2,3-dihydro-1H-isoindol-1-yl]-1H-benzimidazol-2-yl}carbamate] | < 0.1 µM | < 0.1 µM |  |  |
| O=C1COc2ccc(C3(O)c4ccccc4C(=O)N3Cc3cccc(I)c3)cc2N1 (stereo not drawn) [Entry 55, 6-{1-hydroxy-2-[(3-iodophenyl)methyl]-3-oxo-2,3-dihydro-1H-isoindol-1-yl}-2H-1,4-benzoxazin-3(4H)-one] |  |  | 1 to 10 µM | 1 to 10 µM |
| COC(=O)Nc1nc2cc(C3(O)c4ccccc4C(=O)N3CC3CCCN3)ccc2[nH]1 (stereo not drawn) [Entry 300, methyl {5-[1-hydroxy-3-oxo-2-(pyrrolidin-2-ylmethyl)-2,3-dihydro-1H-isoindol-1-yl]-1H-benzimidazol-2-yl}carbamate] | 1 to 10 µM | 1 to 10 µM |  |  |
| COC(=O)Nc1nc2cc(C3(O)c4ccccc4C(=O)N3C3CCc4ccccc43)ccc2[nH]1 (stereo not drawn) [Entry 191, methyl {5-[2-(2,3-dihydro-1H-inden-1-yl)-1-hydroxy-3-oxo-2,3-dihydro-1H-isoindol-1-yl]-1H-benzimidazol-2-yl}carbamate] |  |  | < 0.1 µM | < 0.1 µM |
| O=C1COc2ccc(C3(O)c4ccccc4C(=O)N3c3ccccc3F)cc2N1 (stereo not drawn) [Entry 83, 6-[2-(2-fluorophenyl)-1-hydroxy-3-oxo-2,3-dihydro-1H-isoindol-1-yl]-2H-1,4-benzoxazin-3(4H)-one] |  |  | 1 to 10 µM | 0.1 to 1 µM |
| O=C1COc2ccc(C3(O)c4ccccc4C(=O)N3Cc3cccc([N+](=O)[O-])c3)cc2N1 (stereo not drawn) [Entry 52, 6-{1-hydroxy-2-[(3-nitrophenyl)methyl]-3-oxo-2,3-dihydro-1H-isoindol-1-yl}-2H-1,4-benzoxazin-3(4H)-one] |  |  | 1 to 10 µM | 1 to 10 µM |
| COC(=O)Nc1nc2cc(C(=O)c3ccccc3NC(=O)OCc3ccccc3)ccc2[nH]1 [Entry 270, methyl (5-{[2-({[(phenylmethyl)oxy]carbonyl}amino)pheny]carbonyl}-1H-benzimidazol-2-yl)carbamate] | 1 to 10 µM | 1 to 10 µM |  |  |
| O=C(Nc1nc2cc(C3(O)c4ccccc4C(=O)N3Cc3ccccc3)ccc2[nH]1)OCC1CC1 (stereo not drawn) [Entry 187, cyclopropylmethyl {5-[1-hydroxy-3-oxo-2-(phenylmethyl)-2,3-dihydro-1H-isoindol-1-yl]-1H-benzimidazol-2-yl}carbamate] |  |  | < 0.1 µM | < 0.1 µM |
| O=C1COc2ccc(C3(O)c4ccccc4C(=O)N3Cc3ccccc3Cl)cc2N1 (stereo not drawn) [Entry 35, 6-{2-[(2-chlorophenyl)methyl]-1-hydroxy-3-oxo-2,3-dihydro-1H-isoindol-1-yl}-2H-1,4-benzoxazin-3(4H)-one] |  |  | 1 to 10 µM | ≥ 10 µM |
| COC(=O)Nc1nc2cc(C3(O)c4ccccc4C(=O)N3c3cccc(I)c3)ccc2[nH]1 (stereo not drawn) [Entry 203, methyl {5-[1-hydroxy-2-(3-iodophenyl)-3-oxo-2,3-dihydro-1H-isoindol-1-yl]-1H-benzimidazol-2-yl}carbamate] |  |  | < 0.1 µM | < 0.1 µM |
